For twelve compounds, Ki, Ratio and inhibition results are on record in ChEMBL document CHEMBL1131656, “Diimidazo[1,2-c:4',5'-e]pyrimidines: N6-N1 conformationally restricted adenosines” (Bioorg Med Chem Lett, 1998).

Test [1] addresses T1, Adenosine receptor A1 (Rattus norvegicus, UniProt P25099).
T1 sequence (P25099 whole entry): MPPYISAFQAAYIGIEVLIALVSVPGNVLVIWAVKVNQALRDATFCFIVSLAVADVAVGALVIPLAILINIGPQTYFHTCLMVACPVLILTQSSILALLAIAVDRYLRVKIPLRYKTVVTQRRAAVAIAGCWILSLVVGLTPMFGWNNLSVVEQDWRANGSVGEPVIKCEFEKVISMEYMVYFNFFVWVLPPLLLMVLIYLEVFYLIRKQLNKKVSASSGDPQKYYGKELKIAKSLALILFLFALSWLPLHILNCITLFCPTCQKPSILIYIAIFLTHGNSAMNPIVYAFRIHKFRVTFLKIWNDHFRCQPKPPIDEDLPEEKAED
The test can be described thus: Binding affinity for rat brain Adenosine A1 receptor.

The target in test [2] is Adenosine receptor A2a (Rattus norvegicus, UniProt P30543). The test can be described thus: Binding affinity against Adenosine A2a receptor from rat striata.
In test [3] the target is Adenosine receptors; A1 & A2a (Rattus norvegicus) (UniProt P25099+P30543). Nature of the test: Ratio of Ki for A2A and A1 receptors. The test is classed as protein assay.
The target in test [4] is Adenosine receptor A2a (Rattus norvegicus) (UniProt P30543). Nature of the test: Binding affinity against Adenosine A2a receptor from rat striata at a concentration of 10e-3 uM.
Chain of Adenosine receptor A2a (Rattus norvegicus) (P30543 whole entry): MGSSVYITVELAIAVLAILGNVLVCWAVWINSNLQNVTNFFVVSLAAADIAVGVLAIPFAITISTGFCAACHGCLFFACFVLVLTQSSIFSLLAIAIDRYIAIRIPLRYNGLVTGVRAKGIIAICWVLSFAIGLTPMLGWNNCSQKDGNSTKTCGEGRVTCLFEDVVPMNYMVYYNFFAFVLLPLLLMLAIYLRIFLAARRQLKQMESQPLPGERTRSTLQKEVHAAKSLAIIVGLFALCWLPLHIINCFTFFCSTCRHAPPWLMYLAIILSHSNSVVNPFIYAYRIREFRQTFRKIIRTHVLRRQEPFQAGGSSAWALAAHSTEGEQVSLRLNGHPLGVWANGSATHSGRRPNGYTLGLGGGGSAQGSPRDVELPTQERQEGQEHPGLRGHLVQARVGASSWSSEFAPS

Chain of Adenosine receptor A2a (P30543 whole entry): as above
Chain of Adenosine receptors; A1 & A2a (Rattus norvegicus) (P30543 whole entry, looked up, one chain of several): as the sequence (P30543 whole entry) above

In general, Ki refers to a measure of affinity in units of concentration, obtained from inhibition or displacement. High values mean lower affinity, low ones higher affinity. Take `C[C@H]1N=C2c3ncn(C4O[C@@H](CO)[C@H](O)[C@@H]4O)c3N=CN2[C@@H]1c1ccccc1` (some centres undefined): the Ki stood at 12.6 µM in test [1] and 55.5 µM in test [2]. Besides, in test [3], the Ratio was 4.4.

In the case of `OC[C@@H]1OC(n2cnc3c2N=CN2C[C@@H](Cc4ccccc4)N=C32)[C@@H](O)[C@H]1O` (some centres undefined), the results for the Ki in test [1] and in test [2] were 2.23 µM and 13.5 µM, respectively. In test [3], the Ratio turned out to be 6.

For `OC[C@@H]1OC(n2cnc3c2N=CN2C[C@H](c4ccccc4)N=C32)[C@@H](O)[C@H]1O` (some centres undefined), the Ki in test [1] worked out at 4.54 µM; in test [2], 189 µM. Further, the Ratio in test [3] was determined as 42.

As to `OC[C@@H]1OC(n2cnc3c2N=CN2C[C@H](Cc4ccccc4)N=C32)[C@@H](O)[C@H]1O` (some centres undefined), the Ki in test [1] worked out at 2.99 µM; in test [2], 57.1 µM. In test [3], the Ratio was determined as 19.

The compound `CCCOC1=Nc2c(cnn2-c2ccccc2)C2=N[C@@H](Cc3ccccc3)CN12` had a Ki in test [2] of 3.3 µM. Moreover, the Ratio in test [3] was determined as 0.35.

On to `OC[C@@H]1OC(n2cnc3c2N=CN2C[C@@H](c4ccccc4)N=C32)[C@@H](O)[C@H]1O` (some centres undefined), for which the Ki in test [1] was determined as 3.82 µM; in test [2], 17.5 µM. The Ratio in test [3] amounted to 4.6.

`CCCOC1=Nc2c(cnn2-c2ccccc2)C2=N[C@H](Cc3ccccc3)CN12` had a Ki in test [2] of more than 100 µM. Further, the Ratio in test [3] is more than 100.

Compound `CCCOC1=Nc2c(ncn2-c2ccccc2)C2=N[C@H](Cc3ccccc3)CN12` yielded a Ki in test [2] of 72 µM. Also, the Ratio in test [3] is 22.

As for `CCCOC1=Nc2c(cnn2-c2ccccc2)C2=N[C@H](C)[C@@H](c3ccccc3)N12`, the Ki in test [2] came out at 11 µM. Further, in test [3], the Ratio stood at 1.5.

Take `CCCOC1=Nc2c(cnn2-c2ccccc2)C2=N[C@@H](C)[C@H](c3ccccc3)N12`: in test [2], the Ki turned out to be 45 µM. The Ratio in test [3] was found to be 1.4.

In the case of `CCCOC1=Nc2c(ncn2-c2ccccc2)C2=N[C@@H](Cc3ccccc3)CN12`, the Ratio in test [3] is 0.18.

The term inhibition denotes how much of the control response was suppressed. Low values mean a weak effect, high ones a strong effect. In test [1], `C[C@@H]1N=C2c3ncn(C4O[C@@H](CO)[C@H](O)[C@@H]4O)c3N=CN2[C@H]1c1ccccc1` (some centres undefined) came in with a Ki of 11.2 µM. For the same compound, the inhibition in test [4] was 45%. The Ratio in test [3] stood at 70.
